From the NIST ThermoML archive (doi:10.1016/j.tca.2017.12.026)
Values joined by “and” are separate entries in the source; they are usually repeats but may differ in a detail not shown here. Identical values can stand only once. ± gives the expanded uncertainty stated by the source.

Tests used:
[1] = Crystal; DTA
[2] = Molar enthalpy of transition or fusion; conditions: Crystal; DSC

Q: For `OC[C@@H](O)[C@@H](O)[C@H](O)[C@H](O)CO` [D-mannitol], which Normal melting temperature [1] is on record?
A: Its Normal melting temperature is 165.73 ± 2 °C and 166.68 ± 2 °C and 165.74 ± 2 °C.

Q: And the “Molar enthalpy of transition or fusion” value [2]?
A: Its value is 12.9 kcal/mol and 12.4 kcal/mol and 12.5 kcal/mol.
